In the assay the target is T1, Human M4 mAChR (Homo sapiens, UniProt P08173).
T1 construct: host or cells: HEK293 (Sor-L9 HEK293 human/M4/GloSensor Cell Clone Number 40)
T1 sequence (P08173 1-479): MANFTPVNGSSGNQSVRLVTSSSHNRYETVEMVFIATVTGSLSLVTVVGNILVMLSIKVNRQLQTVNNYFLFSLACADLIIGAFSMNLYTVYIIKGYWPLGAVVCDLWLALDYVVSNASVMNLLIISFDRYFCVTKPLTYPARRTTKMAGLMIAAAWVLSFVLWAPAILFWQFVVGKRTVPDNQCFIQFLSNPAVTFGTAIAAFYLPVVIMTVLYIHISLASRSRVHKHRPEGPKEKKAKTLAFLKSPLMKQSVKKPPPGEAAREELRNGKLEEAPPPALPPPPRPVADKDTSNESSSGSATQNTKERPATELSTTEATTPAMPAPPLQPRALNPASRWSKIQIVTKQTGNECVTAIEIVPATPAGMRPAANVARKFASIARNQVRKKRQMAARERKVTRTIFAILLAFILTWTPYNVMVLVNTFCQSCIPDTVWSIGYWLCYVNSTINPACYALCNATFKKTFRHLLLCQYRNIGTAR
Nature of the assay: Muscarinic hM4 Agonist GloSensor cAMP Assay. The following applies: geometric mean; for Emax: Emax: maximum asymptote of concentration response curve, relative to ACh positive control (EC100) and DMSO, read-out: % maximum effect; for EC50: HEK293 human/M4/GloSensor cells, EC80 isoproterenol, number of determinations in parentheses, read-out: EC50. It is filed as cell-based. An outline of the steps:
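HEK293 GloSensor cells stably expressing human M4, plated 25,000/well overnight, equilibrated 2 h with GloSensor reagent, then exposed 7 min at room temperature to compound ([…] to 0.3 nM, 0.25% DMSO) plus EC80 isoproterenol. Luminescence normalized to 10 μM ACh (EC100) and DMSO controls; four-parameter fit gave EC50 and maximum asymptote (efficacy).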

Regarding `CCOC(=O)N1CC2(CCC(N3CCN(c4ncccc4-c4ccc(NC(C)=O)cc4)CC3)C2)C1` (stereo not shown) [Example 52, ethyl 6-(4-(3-(4-acetamidophenyl)pyridin-2-yl)piperazin-1-yl)-2-azaspiro[3.4]octane-2-carboxylate], the Emax came to 92% and the EC50 (as a rule, the concentration needed to bring the measured effect to its halfway point) was found to be 0.568 nM.

Take `CCOC(=O)N1CC2(CCC(N3CCN(c4ncccc4-c4ccc(C#N)cc4)CC3)C2)C1` (stereo not shown) [Example 53, ethyl 6-(4-(3-(4-cyanophenyl)pyridin-2-yl)piperazin-1-yl)-2-azaspiro[3.4]octane-2-carboxylate]: the Emax amounted to 97% and the EC50 turned out to be 1.75 nM.

These data come from patent US12398119B2, “Piperazine azaspiro derivatives” (PFIZER INC., priority 2018, dated 2025).
